Assay results as given in patent US7786077B2, “Insulins combinations” (priority 2005, dated 2010).

Test system: Streptozotocin-injected male Wistar rats
Assay: Glycemia over 24 days in streptozotocin (60 mg/kg) rats given betaine in drinking water (Example 4)
Format: in vivo, rat
Conditions: 200 mg/kg/day in drinking water, STZ 60 mg/kg rats, FIG. 4
Experimental: Male Wistar rats (+250 g) after 1 week stabulation are injected Streptozotocin 60 mg/kg intraperitoneally. Animals (n=8/group) were fed with normal chow and water ad libitum during 5 days, then at day 1 (T0) Betaine (200 mg/kg/day) or placebo were dissolved and administrated daily in drinking water during 24 days; full access to normal chow was maintained during the whole experiments. Glycemia was measured morning at days of experiments, in non-fastened rats (as in previous exp.). At T0+7 days the treatments were inverted between the 2 groups.

With `C[N+](C)(C)CC(=O)O` [glycine betaine] the “effect on the regulation of blood glucose” value was “per se possesses an effect on the regulation of blood glucose”.
